For 19 compounds, IC50 results are on record in patent US11773071B2, “Benzothiazepine compounds and their use as bile acid modulators” (Albireo AB, priority 2019, dated 2023).

Where only a bound is given, the exact number is not on record here.

The target in one assay is T1, Human LBAT (Homo sapiens, UniProt Q14973).
T1 construct: expressed in transfected cells; Geneticin-selected
T1 sequence (Q14973 1-349): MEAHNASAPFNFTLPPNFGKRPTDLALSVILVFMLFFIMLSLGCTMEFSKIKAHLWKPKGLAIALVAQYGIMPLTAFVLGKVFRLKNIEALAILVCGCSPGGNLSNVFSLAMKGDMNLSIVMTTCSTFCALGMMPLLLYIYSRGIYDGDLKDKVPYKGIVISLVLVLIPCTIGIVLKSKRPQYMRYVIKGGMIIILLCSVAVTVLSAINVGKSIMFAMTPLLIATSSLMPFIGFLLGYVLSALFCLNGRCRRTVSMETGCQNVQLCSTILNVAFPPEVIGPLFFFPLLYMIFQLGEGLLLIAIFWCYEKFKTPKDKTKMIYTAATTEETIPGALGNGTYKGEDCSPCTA
As to the kind of experiment: LBAT (h/m) assay, human LBAT-overexpressing cells, 3H-taurocholic acid uptake. To be noted: 0.3 μM 3H-taurocholic acid and 7.5 μM cold taurocholic acid, 20 minutes, read-out: hLBAT IC50. The assay is classed as cell-based. Here is the method:
LBAT (h/m) Assay Protocol
20,000 cells (Human or Mouse LBAT-overexpressing cells) were seeded in 96-wells plate (Corning CLS3809) in 100 μL MEM-alpha medium (Gibco 12571-063) supplemented with 10% FBS (Gibco 10438026) containing Geneticin (Gibco 10131-027) (1 mg/mL) and incubated at 37° C. in 5% CO2 for 24 hours. After incubation, media was decanted from the wells and cells were washed two times with 300 μL of basal MEM-alpha medium (FBS-free). After decanting basal MEM-alpha medium each time, plates were tapped against paper towel to ensure maximum removal of residual media.
For human LBAT, incubation mix was prepared by adding test inhibitor dilutions (3-fold serial dilution in DMSO (Sigma D2650), 10 points) in MEM-alpha (without FBS) containing 0.3 μM 3H-taurocholic acid (ARC ART-1368) and 7.5 μM cold taurocholic acid (Sigma T4009) (maintaining 0.2% final DMSO concentration). For mouse LBAT, incubation mix was prepared by adding test inhibitor dilutions (3-fold serial dilution in DMSO, 10 points) in MEM-alpha (without FBS) containing 0.3 μM 3H-taurocholic acid and 25 μM cold taurocholic acid maintaining 0.2% final DMSO concentration). 50 μL of incubation mix containing test inhibitors was then added to the wells (in duplicate) and the plates were incubated for 20 minutes in a CO2 incubator at 37° C. After incubation, the reaction was stopped by keeping the plates on ice water mix for 2-3 minutes and then the incubation mix was aspirated completely from the wells. The wells were washed two times with 250 μL of chilled unlabelled 1 mM taurocholic acid dissolved in HEPES (Gibco 15630080)-buffered (10 mM) HBSS (Gibco 14175079) (pH 7.4). The plates were tapped against a paper towel after every wash to ensure maximum removal of blocking buffer. 100 μL of MicroScint-20 (PerkinElmer 6013621) was added to the wells and kept overnight at room temperature before reading the plates in TopCount NXT™ Microplate Scintillation and Luminescence Counter from PerkinElmer under 3H Test protocol (set at 120 seconds reading time per well, with normal plate orientation).
(§1) Preparation of Test Compound Dilutions
(§2) All test compounds were provided in powder form at room temperature. 10 mM DMSO stocks of the test compounds were prepared, aliquoted and stored at −20° C. From the 10 mM DMSO stock of the compounds, a 3-fold serial dilution in DMSO was prepared to get a total of 10 dilutions of the test compounds. 0.5 μL of this dilution in DMSO was added to 250 μL of FBS-free basal media containing 3H-taurocholic acid and cold taurocholic acid to prepare the incubation mixture.

Another assay concerns the target T2, Human IBAT (Homo sapiens, UniProt Q12908).
T2 construct: expressed in transfected cells; Puromycin-selected
T2 sequence (Q12908 1-348): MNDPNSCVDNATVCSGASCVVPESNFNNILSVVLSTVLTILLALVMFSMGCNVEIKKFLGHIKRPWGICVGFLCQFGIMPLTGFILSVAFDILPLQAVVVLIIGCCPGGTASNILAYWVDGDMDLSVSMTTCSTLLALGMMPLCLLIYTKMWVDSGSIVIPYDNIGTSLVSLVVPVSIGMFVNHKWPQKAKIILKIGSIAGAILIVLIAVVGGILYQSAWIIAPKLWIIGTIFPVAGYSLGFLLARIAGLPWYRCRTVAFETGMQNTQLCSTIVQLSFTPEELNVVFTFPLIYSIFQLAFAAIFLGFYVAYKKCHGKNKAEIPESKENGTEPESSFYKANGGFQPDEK
As to the kind of experiment: IBAT (h/m) assay, human IBAT-overexpressing cells, 3H-taurocholic acid uptake. To be noted: 0.25 μM 3H-taurocholic acid and 5 μM cold taurocholic acid, 20 minutes, read-out: hIBAT IC50. The assay is classed as cell-based. Here is the method:
IBAT (h/m) Assay Protocol
10,000 cells (Human or Mouse IBAT-overexpressing cells) were seeded in 96-wells plate (Corning CLS3809) in 200 μL MEM-alpha medium (Gibco 12571-063) supplemented with 10% FBS (Gibco 10438026) containing Puromycin (Gibco A1113803) (10 μg/mL) and incubated at 37° C. in 5% CO2 for 48 hours. After incubation, media was decanted from the wells and cells were washed two times with 300 μL of basal MEM-alpha medium (FBS-free). After decanting basal MEM-alpha medium each time, plates were tapped against paper towel to ensure maximum removal of residual media. Test inhibitor dilutions (highest test concentration being 10 μM, 3-fold serial dilution, 10 points) prepared in DMSO (Sigma D2650) were added in incubation mix (maintaining 0.2% final DMSO concentration) containing 0.25 μM 3H-taurocholic acid (ARC ART-1368) and 5 μM of cold taurocholic acid (Sigma T4009). 50 μL of incubation mix containing test inhibitors was then added to the wells (in duplicate) and the plates were incubated for 20 minutes in a CO2 incubator at 37° C. After incubation, the reaction was stopped by keeping the plates on ice water mix for 2-3 minutes and then the incubation mix was aspirated completely from the wells. The wells were washed two times with 250 μL of chilled unlabelled 1 mM taurocholic acid dissolved in HEPES (Gibco 15630080)-buffered (10 mM) HBSS (Gibco 14175079) (pH 7.4). The plates were tapped against a paper towel after every wash to ensure maximum removal of blocking buffer.
100 μL of MicroScint-20 (PerkinElmer 6013621) was added to the wells and kept overnight at room temperature before reading the plates in TopCount NXT™ Microplate Scintillation and Luminescence Counter from PerkinElmer under 3H Test protocol (set at 120 seconds reading time per well).
as §1, §2

Usually IC50 stands for the concentration needed to halve the response being measured. As for `CCCCC1(CC)CN(c2ccccc2)c2cc(Cl)c(OCCC(=O)O)cc2S(=O)(=O)C1` (racemic) [Example 5, 3-((3-Butyl-7-chloro-3-ethyl-1,1-dioxido-5-phenyl-2,3,4,5-tetrahydro-1,5-benzothiazepin-8-yl)oxy)propanoic acid], the concentration for half-maximal inhibition (IC50) at Human LBAT amounted to 791 nM; on Human IBAT, 35 nM.

Take `CCCCC1(CC)CN(c2ccccc2)c2cc(SC)c(OCCC(=O)O)cc2S(=O)(=O)C1` (racemic) [Example 12, 3-((3-Butyl-3-ethyl-7-(methylthio)-1,1-dioxido-5-phenyl-2,3,4,5-tetrahydro-1,5-benzothiazepin-8-yl)oxy)propanoic acid]: the IC50 was 669 nM on Human LBAT and 4 nM on Human IBAT. Take `CCCCC1(CCCC)CN(c2ccccc2)c2cc(SC)c(OCC(C)(O)C(=O)O)cc2S(=O)(=O)C1` (racemic) [Example 19, 3-((3,3-Dibutyl-7-(methylthio)-1,1-dioxido-5-phenyl-2,3,4,5-tetrahydro-1,5-benzothiazepin-8-yl)oxy)-2-hydroxy-2-methylpropanoic acid]: the half-inhibitory concentration (IC50) is 601 nM on Human LBAT and 39 nM on Human IBAT.

For `CCCCC1(C)CN(c2ccccc2)c2cc(SC)c(OCCC(=O)O)cc2S(=O)(=O)C1` (racemic) [Example 22, 3-((3-butyl-3-methyl-7-(methylthio)-1,1-dioxido-5-phenyl-2,3,4,5-tetrahydro-1,5-benzothiazepin-8-yl)oxy)propanoic acid], the figures for the IC50 on Human LBAT and on Human IBAT were 543 nM and 10 nM, respectively. With `CCCCC1(CC)CN(c2ccc(F)cc2)c2cc(SC)c(OCCC(=O)O)cc2S(=O)(=O)C1` (racemic) [Example 37, 3-((3-butyl-3-ethyl-5-(4-fluorophenyl)-7-(methylthio)-1,1-dioxido-2,3,4,5-tetrahydro-1,5-benzothiazepin-8-yl)oxy)propanoic acid], the IC50 at Human LBAT amounted to 297 nM; on Human IBAT, 3 nM. In the same order, the values of `CCCCC1(CC)CN(c2ccccc2)c2cc(OC)c(OCCC(=O)O)cc2S(=O)(=O)C1` (racemic) [Example 43, 3-((3-butyl-3-ethyl-7-methoxy-1,1-dioxido-5-phenyl-2,3,4,5-tetrahydro-1,5-benzothiazepin-8-yl)oxy)propanoic acid] are more than 20000 nM and 44 nM. In the same order, the values of `CCCCC1(CCCC)CN(c2ccccc2)c2cc(SC)c(OCC(OC)C(=O)O)cc2S(=O)(=O)C1` (racemic) [Example 46, 3-((3,3-Dibutyl-7-(methylthio)-1,1-dioxido-5-phenyl-2,3,4,5-tetrahydro-1,5-benzothiazepin-8-yl)oxy)-2-methoxypropanoic acid] are 1480 nM and 26 nM. As for `CCCCC1(C)CN(c2ccc(F)cc2)c2cc(SC)c(OCCC(=O)O)cc2S(=O)(=O)C1` (racemic) [Example 49, 3-((3-Butyl-5-(4-fluorophenyl)-3-methyl-7-(methylthio)-1,1-dioxido-2,3,4,5-tetrahydro-1,5-benzothiazepin-8-yl)oxy)propanoic acid], the IC50 at Human IBAT was found to be 10 nM.

`CCCCC1(C)CN(c2ccccc2)c2cc(N(C)C)c(OCCC(=O)O)cc2S(=O)(=O)C1` (single isomer, unassigned) [29, enantiomer 2]: the concentration for half-maximal inhibition (IC50) turned out to be 3310 nM on Human LBAT and 57 nM at Human IBAT.

As for `CCCCC1(CC)CN(c2ccccc2)c2cc(Cl)c(OC(C)CC(=O)O)cc2S(=O)(=O)C1` (single isomer, unassigned) [30, diastereomer 2], the IC50 came out at 322 nM at Human LBAT and 52 nM at Human IBAT. In the same order, the values of `CCCCC1(CC)CN(c2ccccc2)c2cc(Cl)c(OC(C)CC(=O)O)cc2S(=O)(=O)C1` (single isomer, unassigned) [30, diastereomers 1 and 2] are 247 nM and 36 nM. Taken in the same sequence, the figures for `CCCCC1(CC)CN(c2ccccc2)c2cc(Cl)c(OC(C)CC(=O)O)cc2S(=O)(=O)C1` (single isomer, unassigned) [30, diastereomers 3 and 4] were 818 nM and 263 nM.

With `CCCCC1(C)CN(c2ccccc2)c2cc(SC)c(OCC(C)(O)C(=O)O)cc2S(=O)(=O)C1` (single isomer, unassigned) [33, diastereomer 4], at Human LBAT, the IC50 was determined as 575 nM. For the compound `CCCCC1(CC)CN(c2ccccc2)c2cc(SC)c(OCC(N)C(=O)O)cc2S(=O)(=O)C1` (single isomer, unassigned) [36, diastereomer 1], the IC50 on Human IBAT worked out at 76 nM. Regarding `CCCCC1(CC)CN(c2ccccc2)c2cc(SC)c(OCC(N)C(=O)O)cc2S(=O)(=O)C1` (single isomer, unassigned) [36, diastereomer 2], the IC50 at Human IBAT was 5 nM. The same measure, in the same setting: as for `CCCCC1(CC)CN(c2ccccc2)c2cc(N(C)C)c(OCCC(=O)O)cc2S(=O)(=O)C1` (single isomer, unassigned) [Example 18, 3-((3-butyl-7-(dimethylamino)-3-ethyl-1,1-dioxido-5-phenyl-2,3,4,5-tetrahydro-1,5-benzothiazepin-8-yl)oxy)propanoic acid], the figure is 52 nM; as for `CCCC1(CC)CN(c2ccccc2)c2cc(SC)c(OCCC(=O)O)cc2S(=O)(=O)C1` (stereo not drawn) [Example 27, 3-((3-ethyl-7-(methylthio)-1,1-dioxido-5-phenyl-3-propyl-2,3,4,5-tetrahydro-1,5-benzothiazepin-8-yl)oxy)propanoic acid], 62 nM; as for `CCCCC1(CC)CN(c2ccccc2)c2cc(SC)c(OCC(N)C(=O)O)cc2S(=O)(=O)C1` (stereo not drawn) [Example 28, O-(3-butyl-3-ethyl-7-(methylthio)-1,1-dioxido-5-phenyl-2,3,4,5-tetrahydro-1,5-benzothiazepin-8-yl)serine], 45 nM.

For `CCCCC1(C)CN(c2ccc(F)cc2)c2cc(SC)c(OCC(O)C(=O)O)cc2S(=O)(=O)C1` (stereo not drawn) [Example 51, 3-((3-Butyl-5-(4-fluorophenyl)-3-methyl-7-(methylthio)-1,1-dioxido-2,3,4,5-tetrahydro-1,5-benzothiazepin-8-yl)oxy)-2-hydroxypropanoic acid], on Human IBAT, the IC50 was 5 nM.
